Here are results for five compounds from patent US5401739A, “Benzothiadiazine derivatives” (Taiho Pharmaceutical Co. Ltd., priority 1991, dated 1995).

In data set [1] the test system is hydrochloric acid induced-ulcer. The experiment in a line: Effect on hydrochloric acid induced-ulcer (Pharmacological Test 2). The format is in vivo, Male Wistar rats. To be noted: 1 h before 0.6N HCl. Here is the method:
Effect on hydrochloric acid induced-ulcer:
(§1) Male Wistar rats (weighing 156 to 189 g) were divided into groups, 5 to 8 rats in each group. The animals were fasted for 24 hours, and 5 ml/kg of 0.6N hydrochloric acid was given orally. The animals were sacrificed 1 hour later. The stomach was removed, and 1% formalin was injected into the removed stomach to fix the stomach. The stomach was then incised open along the greater curvature. The length (mm) of gastric lesions was measured, summed and used as an ulcer index. The compound to be tested was dissolved in water, and the solution was orally given to animals at varying doses 1 hour before the injection of hydrochloric acid.

The test system of data set [2] is gastric acid secretion. The experiment in a line: Inhibitory activity on gastric acid secretion (pylorus ligation, Pharmacological Test 1). The format is in vivo, Male Wistar rats. Here is the method:
Inhibitory activity on gastric acid secretion:
(§2) Male Wistar rats (weighing 172 to 200 g) were divided into groups, 7 to 8 rats in each group. The animals were fasted for 24 hours. Under ether anesthesia, the abdomen was incised and the pylorus was ligated according to the method of Shay et al. [Gastroenterology, 1, 420 (1963)]. The animals were sacrificed 4 hours later, and the stomach was removed to collect gastric juice, which was then centrifuged (3000 r.p.m., 10 minutes). The volume of gastric juice and the acidity were measured. The compound to be tested was dissolved in water, and the solution was intraduodenally given to animals at varying doses immediately after the ligation of the pylorus.

Data set [3] concerns hydrochloric acid induced-ulcer. The experiment in a line: Effect on hydrochloric acid induced-ulcer, comparison with Compound A (Pharmacological Test 4). The format is in vivo, Male Wistar rats. To be noted: 30 mg/kg; for Percent inhibition of effect on hydrochloric acid induced-ulcer: Table 8, oral as in Test 2. Here is the method:
as §1

In data set [4] the test system is gastric acid secretion. The experiment in a line: Inhibitory activity on gastric acid secretion, comparison with Compound A (Pharmacological Test 3). Conditions: 30 mg/kg; for Percent inhibition on gastric acid secretion: Table 7, intraduodenal as in Test 1. It counts as in vivo, Male Wistar rats. The procedure: as §2
Inhibitory activity on gastric acid secretion was measured in the same manner as in Pharmacological Test 1 with use of Compound 2 below as the present compound and, for comparison, Compound A below of Example 37c in JP-A-116277/1984.

Data set [5] in a line: Hygroscopicity (remark in Table 1). The format is physicochemical.
The mark [6] stands for this setting: Table 3, 10 mg/kg intraduodenal, 4 h, control 2.5 ± 0.5.
Setting [7] is: Table 3, 10 mg/kg intraduodenal, 4 h, control 65.2 ± 10.7.
Setting [8] is: Table 3, 10 mg/kg intraduodenal, 4 h, control 162.3 ± 41.6.

Regarding `CN1C(NC/C=C\COc2cccc(CN3CCCCC3)c2)=NS(=O)(=O)c2ccccc21` [Compound 22, 3-[N-[4-[3-(piperidinomethyl)phenoxy]-(cis) 2-butenyl]amino]-4-methyl-1,2,4-benzothiadiazine-1,1-dioxide], the “Percent inhibition (ulcer index)” value is recorded as 16.5% in data set [1] (Table 5, 10 mg/kg oral); 35.6% in data set [1] (Table 5, 30 mg/kg oral); 48.4% in data set [1] (Table 5, 100 mg/kg oral). Besides, the Ulcer index in data set [1] (Table 5, 10 mg/kg oral, control 61.2 ± 25.4) is 51.1 ± 20.4 mm; in data set [1] (Table 5, 30 mg/kg oral, control 61.2 ± 25.4) it was 39.4 ± 13.2 mm; in data set [1] (Table 5, 100 mg/kg oral, control 61.2 ± 25.4), 31.6 ± 5.0 mm. In addition, the “Volume of gastric juice” value with gastric acid secretion [2] (Table 3, 3 mg/kg intraduodenal, 4 h, control 2.5 ± 0.5) amounted to 2.0 ± 0.6 mL; in the data set with gastric acid secretion [2] (setting [6]), 2.3 ± 1.0 mL. Besides, the Acidity was 8.6 ± 8.2 μ Eq/ml with gastric acid secretion [2] (Table 3, 3 mg/kg intraduodenal, 4 h, control 65.2 ± 10.7) and 2.1 ± 3.9 μ Eq/ml in the data set with gastric acid secretion [2] (setting [7]). The Total acid output in the data set on gastric acid secretion [2] (Table 3, 3 mg/kg intraduodenal, 4 h, control 162.3 ± 41.6) worked out at 15.5 ± 9.6 μ Eq; in the data set on gastric acid secretion [2] (setting [8]) it was 4.5 ± 9.4 μ Eq.
Take `CCCCN1C(NC/C=C\COc2cccc(CN3CCCCC3)c2)=NS(=O)(=O)c2ccccc21` [Compound 28]: the “Percent inhibition (ulcer index)” value is on record as 22.6% in data set [1] (Table 6, 10 mg/kg oral); 62.8% in data set [1] (Table 6, 30 mg/kg oral); 96.6% in data set [1] (Table 6, 100 mg/kg oral). Also, the Ulcer index in data set [1] (Table 6, 10 mg/kg oral, control 150.0 ± 35.2) is given as 116.1 ± 34.9 mm; in data set [1] (Table 6, 30 mg/kg oral, control 150.0 ± 35.2), 55.8 ± 32.4 mm; in data set [1] (Table 6, 100 mg/kg oral, control 150.0 ± 35.2) it was 5.1 ± 4.1 mm. Further, the “Volume of gastric juice” value in the data set on gastric acid secretion [2] (setting [6]) turned out to be 2.2 ± 0.8 mL; in the data set with gastric acid secretion [2] (Table 3, 30 mg/kg intraduodenal, 4 h, control 2.5 ± 0.5), 1.5 ± 0.5 mL; with gastric acid secretion [2] (Table 3, 100 mg/kg intraduodenal, 4 h, control 2.5 ± 0.5), 1.1 ± 0.5 mL. Also, the Acidity in the data set with gastric acid secretion [2] (setting [7]) was 59.2 ± 12.4 μ Eq/ml; in the data set on gastric acid secretion [2] (Table 3, 30 mg/kg intraduodenal, 4 h, control 65.2 ± 10.7), 32.0 ± 14.4 μ Eq/ml; in the data set with gastric acid secretion [2] (Table 3, 100 mg/kg intraduodenal, 4 h, control 65.2 ± 10.7), 4.9 ± 8.2 μ Eq/ml. The Total acid output was found to be 133.3 ± 69.0 μ Eq in the data set with gastric acid secretion [2] (setting [8]); 53.6 ± 32.9 μ Eq with gastric acid secretion [2] (Table 3, 30 mg/kg intraduodenal, 4 h, control 162.3 ± 41.6); 4.6 ± 7.1 μ Eq with gastric acid secretion [2] (Table 3, 100 mg/kg intraduodenal, 4 h, control 162.3 ± 41.6).
Take `COc1ccc(CN(CCCOc2cccc(CN3CCCCC3)c2)C2=NS(=O)(=O)c3ccccc3N2C)cc1` [Compound 2, 3-[N-[3-[3-(piperidinomethyl)phenoxy]propyl]-4'-methoxybenzylamino]-4-methyl-1,2,4-benzothiadiazine-1,1-dioxide]: in data set [3], the “Percent inhibition of effect on hydrochloric acid induced-ulcer” value is listed as 86.9%. Besides, the “effect on hydrochloric acid induced-ulcer, compared with Compound A” value in data set [3] (in words, vs Compound A) is listed as “extremely excellent than Compound A”. For the same compound, the “Percent inhibition (ulcer index)” value was 33.6% in data set [1] (Table 4, 3 mg/kg oral); 55.8% in data set [1] (Table 4, 10 mg/kg oral); 85.0% in data set [1] (Table 4, 30 mg/kg oral); 94.5% in data set [1] (Table 4, 100 mg/kg oral). Besides, the Ulcer index in data set [1] (Table 4, 3 mg/kg oral, control 72.7 ± 23.7) came to 48.3 ± 17.8 mm; in data set [1] (Table 4, 10 mg/kg oral, control 72.7 ± 23.7), 32.1 ± 24.9 mm; in data set [1] (Table 4, 30 mg/kg oral, control 72.7 ± 23.7), 10.9 ± 17.2 mm; in data set [1] (Table 4, 100 mg/kg oral, control 72.7 ± 23.7) it was 4.0 ± 6.1 mm. The Acidity with gastric acid secretion [2] (Table 2, 3 mg/kg intraduodenal, 4 h, control 78.4 ± 12.0) is given as 64.8 ± 15.1 μ Eq/ml; in the data set on gastric acid secretion [2] (Table 2, 10 mg/kg intraduodenal, 4 h, control 78.4 ± 12.0), 54.9 ± 16.1 μ Eq/ml; in the data set on gastric acid secretion [2] (Table 2, 30 mg/kg intraduodenal, 4 h, control 78.4 ± 12.0), 30.9 ± 16.7 μ Eq/ml. The Total acid output is on record as 247.8 ± 96.9 μ Eq with gastric acid secretion [2] (Table 2, 3 mg/kg intraduodenal, 4 h, control 391.6 ± 161.6); 205.9 ± 165.0 μ Eq in the data set on gastric acid secretion [2] (Table 2, 10 mg/kg intraduodenal, 4 h, control 391.6 ± 161.6); 85.3 ± 92.7 μ Eq in the data set with gastric acid secretion [2] (Table 2, 30 mg/kg intraduodenal, 4 h, control 391.6 ± 161.6). The “Volume of gastric juice” value in the data set on gastric acid secretion [2] (Table 2, 3 mg/kg intraduodenal, 4 h after pylorus ligation, control 4.8 ± 1.5) turned out to be 3.7 ± 0.9 mL; with gastric acid secretion [2] (Table 2, 10 mg/kg intraduodenal, 4 h, control 4.8 ± 1.5), 3.4 ± 1.8 mL; with gastric acid secretion [2] (Table 2, 30 mg/kg intraduodenal, 4 h, control 4.8 ± 1.5), 2.4 ± 1.4 mL. Further, in the data set on gastric acid secretion [4], the “Percent inhibition on gastric acid secretion” value was 95.1%. For the same compound, the “inhibitory activity on gastric acid secretion, compared with Compound A” value in the data set with gastric acid secretion [4] (in words, vs Compound A) is reported as “almost equal to Compound A”.
Regarding `COc1ccc2c(c1)N(C)C(NC/C=C\COc1cccc(CN3CCCCC3)c1)=NS2(=O)=O` [Compound 29, 3-[N-[4-[3-(piperidinomethyl)phenoxy]-(cis) 2-butenyl]amino]-4-methyl-6-methoxy-1,2,4-benzothiadiazine-1,1-dioxide], the Hygroscopicity result in data set [5] is reported as “Hygroscopic”.
For the compound `CN1C(NCCCOc2cccc(CN3CCCCC3)c2)=NS(=O)(=O)c2ccccc21` [Compound A, reference compound], the “Percent inhibition of effect on hydrochloric acid induced-ulcer” value in data set [3] is 59.4%. Further, in the data set with gastric acid secretion [4], the “Percent inhibition on gastric acid secretion” value stood at 96.2%.
